One data set relates to GPR37-tGFP. The data set is described as follows: GPR37-tGFP translocation assay. The data set is classed as cell-based, mouse. The following applies: for effect in GPR37-translocation assay (hit rating): tested at 2, 10 and 20 μM. The procedure:
FIG. 2. Schematic representation of the rationale and the basic steps of GPR37-translocation assay. A. GPR37 is prone to misfolding and aggregation, which, in metabolically-active cells, are followed by degradation and results in low levels of functional receptor in the plasma membrane. The primary targets of the screening assay are compounds that can directly or indirectly facilitate maturation and trafficking of GPR37 to the plasma membrane. B. N2a cells stably expressing GPR37-tGFP are seeded in poly-D-Lysine coated 384 well plates at density 5000 cells/well. 24 h later cells are treated with compounds, including positive and negative controls, and incubated for 72 h. Then cells are fixed with 4% PFA and additionally stained with Hoechst 33342 (nuclei) and HCS CellMask™ red (cell body) to enable segmentation of the plasma membrane. Acquisition of fluorescence images is done using ImageXpress high content screening system (Molecular Devices). Quantification of GPR37-tGFP levels in the plasma membrane is done using CellProfiler software. FIG. 3. Schematic representation of Image analysis pipeline and final outcome data. Segmentation of the plasma membrane is performed in five main steps: 1) identification of nuclei (primary objects) using nuclear stain, 2) determination of cell borders using primary objects as seeds and growing these objects in respect of tGFP and HCS CellMask™ fluorescence intensity (secondary objects), 3) shrinking and expending secondary objects, 4) subtraction of shrunken cells from expended cells which results in membrane segmentation (tertiary objects), 5) tGFP fluorescence intensity is calculated within tertiary objects. Z′ factor is a quality measure of an assay which describes how well separated positive and negative controls are. Assays having Z′ factors above 0.5 are considered good assays. N2a cells stably expressing GPR37-tGFP were seeded in 384 BDFalcon BioCoat Poly-D-Lysine coated plates at a density of 5000 cells/well, and 50 μL incubation volume of maintenance medium. Cells were incubated at 37° C., 5% CO2 using humidity chamber. 24 h later, the cells were treated with 10 μL of compounds of desired concentration, including positive (2 mM dibutyryl-cAMP+0.5 mM 4-phenylbutyrate) and negative controls (0.1% DMSO), and incubated for 72 h. Cells were fixed with 4% PFA by adding 20 μL of 16% PFA directly to cell medium, incubating for 20 min and washing with PBS-Tween20 (0.05%). Directly after fixation cells were stained for nuclei with Hoechst 33342 (0.01 mg/mL) and for cell bodies with HCS CellMask™ Red stain (Thermo Fisher Scientific Inc.) (0.001 mg/mL) by incubating with the dyes for 30 min in PBS-Tween20 (0.05%) followed by washing with PBS. All the additional steps, including cell seeding were performed using Multidrop Combi dispenser (Thermo Scientific) and washing steps were done by means of HydroSpeed™ plate washer (Tecan). The images were captured using ImageXpress Micro XLS Widefield High-Content Analysis System (Molecular Devices, LLC) in 3 fluorescent channels (ImageXpress filters are listed, followed by excitation/emission in nm): DAPI (387/447), FITC (482/536) and TexasRed (562/624). Binning 2 was applied during the acquisition and digital confocal option was used for FITC and TexasRed filters. Typically, 5 images were taken per well at magnification 20× and stored as 16 bit, gray scale tif files along with metadata in Oracle database, for further analysis. Quantification of GPR37-tGFP levels in the plasma membrane was done using CellProfiler™ software. CellProfiler™ is an open-source cell image analysis software available at www.cellprofiler.org. An image analysis pipeline used for membrane segmentation consisted of 5 main steps (FIG. 3): 1) segmentation of nuclei (primary objects); 2) segmentation of cell bodies (secondary objects); 3) shrinking and expending cell bodies; 4) subtraction of shrank cells from expanded cells (tertiary objects—membranes); 5) calculating tGFP fluorescence in the membranes. […]

A further data set has as its target T1, hepatic aldehyde oxidase (Homo sapiens, UniProt Q06278).
T1 sequence (Q06278 1-1338): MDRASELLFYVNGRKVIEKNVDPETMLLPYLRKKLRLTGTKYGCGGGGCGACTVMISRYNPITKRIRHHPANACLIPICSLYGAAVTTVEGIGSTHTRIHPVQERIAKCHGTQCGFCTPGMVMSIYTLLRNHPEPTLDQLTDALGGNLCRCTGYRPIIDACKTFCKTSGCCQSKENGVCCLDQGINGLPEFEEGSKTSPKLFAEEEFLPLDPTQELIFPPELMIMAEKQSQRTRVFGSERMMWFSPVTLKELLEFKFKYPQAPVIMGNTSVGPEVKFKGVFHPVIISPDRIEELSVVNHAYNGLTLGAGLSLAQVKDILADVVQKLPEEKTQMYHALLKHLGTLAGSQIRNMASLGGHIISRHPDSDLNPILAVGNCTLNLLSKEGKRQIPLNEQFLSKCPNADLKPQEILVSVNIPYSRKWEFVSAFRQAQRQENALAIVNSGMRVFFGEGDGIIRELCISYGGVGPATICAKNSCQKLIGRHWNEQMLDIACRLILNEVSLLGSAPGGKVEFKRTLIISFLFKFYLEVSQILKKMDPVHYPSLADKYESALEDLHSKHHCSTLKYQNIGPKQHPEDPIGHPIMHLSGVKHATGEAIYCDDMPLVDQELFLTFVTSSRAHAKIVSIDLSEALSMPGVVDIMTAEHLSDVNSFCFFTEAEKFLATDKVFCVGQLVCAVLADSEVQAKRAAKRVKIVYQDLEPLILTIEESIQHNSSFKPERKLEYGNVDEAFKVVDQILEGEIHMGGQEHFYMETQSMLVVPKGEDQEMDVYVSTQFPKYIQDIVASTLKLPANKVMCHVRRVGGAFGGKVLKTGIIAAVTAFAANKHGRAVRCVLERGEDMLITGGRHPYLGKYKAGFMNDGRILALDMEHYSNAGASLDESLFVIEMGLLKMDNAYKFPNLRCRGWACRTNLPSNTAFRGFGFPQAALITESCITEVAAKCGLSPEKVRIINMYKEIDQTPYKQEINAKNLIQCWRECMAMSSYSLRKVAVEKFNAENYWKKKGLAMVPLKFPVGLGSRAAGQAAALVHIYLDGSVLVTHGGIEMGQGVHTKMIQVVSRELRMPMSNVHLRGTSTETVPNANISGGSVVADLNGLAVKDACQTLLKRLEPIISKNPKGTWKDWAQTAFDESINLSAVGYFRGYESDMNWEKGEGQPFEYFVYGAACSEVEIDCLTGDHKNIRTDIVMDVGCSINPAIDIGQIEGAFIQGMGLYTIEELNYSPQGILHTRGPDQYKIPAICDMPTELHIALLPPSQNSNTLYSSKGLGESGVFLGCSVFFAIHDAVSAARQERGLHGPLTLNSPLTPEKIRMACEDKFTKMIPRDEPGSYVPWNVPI
The following applies: cited from earlier work.

The conditions of data set [1]: compared with idoxuridine; cited from earlier work.

For `Nc1cccc(-c2cn([C@H]3C[C@H](O)[C@@H](CO)O3)c(=O)[nH]c2=O)c1` [Compound 17, 5-(3-aminophenyl)-1-((2R,4S,5R)-4-hydroxy-5-(hydroxy-methyl)tetrahydrofuran-2-yl)pyrimidine-2,4(1H,3H)-dione], in the data set on GPR37-tGFP, the “effect in GPR37-translocation assay (hit rating)” value (“effect” below) was “strong hit”. Regarding `O=c1ncc(I)cn1[C@H]1C[C@H](O)[C@@H](CO)O1` [ropidoxuridine, 1-((2R,4S,5R)-4-hydroxy-5-(hydroxymethyl)tetrahydrofuran-2-yl)-5-iodopyrimidin-2(1H)-one], on hepatic aldehyde oxidase, the “metabolic conversion to idoxuridine” value was “efficiently converted to idoxuridine”. Further, in data set [1], the stability in vivo entry is listed as “more stable” and the toxicity in vivo entry was “less toxic”. For `CCCC(=O)Nc1ncnc2c1ncn2[C@@H]1O[C@@H]2COP(=O)(O)O[C@H]2[C@H]1OC(=O)CCC` [dibutyryl-cAMP], the “increase of GPR37-tGFP in the plasma membrane” value with GPR37-tGFP (without starvation, used as positive control) is “remarkable increase”. `C#Cc1cn([C@H]2C[C@H](O)[C@@H](CO)O2)c(=O)[nH]c1=O` [Compound 4, 5-ethynyl-1-((2R,4S,5R)-4-hydroxy-5-(hydroxymethyl)-tetrahydrofuran-2-yl)pyrimidine-2,4(1H,3H)-dione]: in the data set with GPR37-tGFP, the “effect” value is given as “slight positive effect”.

Regarding `O=c1[nH]c(=O)n([C@H]2C[C@H](O)[C@@H](CO)O2)cc1O` [Compound 2, 5-hydroxy-1-((2R,4S,5R)-4-hydroxy-5-(hydroxymethyl)tetrahydrofuran-2-yl)pyrimidine-2,4(1H,3H)-dione], the “effect” value with GPR37-tGFP is reported as “slight positive effect”.

These data come from patent US11103525B2, “Idoxuridine and its analogs as neuroprotectans for the treatment of parkinsonism” (priority 2017, dated 2021).
